# Reference: patent publication US20090263341A1, “SOFT ANTICHOLINERGIC ESTERS” (priority 2005, published 2009)
# Counter-ions that a name gives are not always drawn. Like-named read-outs stand apart in the source and are kept apart here.
# Legend:
# [1] = biological target: cloned human muscarinic receptor subtypes M1-M4; test: Receptor binding at cloned human muscarinic receptors, values stated across subtypes (ranges, M3/M2 selectivity)
# [2] = biological target: T1, cloned human muscarinic receptor subtype M3 (Homo sapiens, UniProt P20309); test: Receptor binding, [3H]NMS, cloned human muscarinic receptor M3
# T1 construct: purchased Applied Cell Science Inc. (Rockville, Md.)
# [3] = biological target: T2, cloned human muscarinic receptor subtype M4 (Homo sapiens, UniProt P08173); test: Receptor binding, [3H]NMS, cloned human muscarinic receptor M4
# T2 construct: purchased Applied Cell Science Inc. (Rockville, Md.)
# T2 sequence (P08173 1-479): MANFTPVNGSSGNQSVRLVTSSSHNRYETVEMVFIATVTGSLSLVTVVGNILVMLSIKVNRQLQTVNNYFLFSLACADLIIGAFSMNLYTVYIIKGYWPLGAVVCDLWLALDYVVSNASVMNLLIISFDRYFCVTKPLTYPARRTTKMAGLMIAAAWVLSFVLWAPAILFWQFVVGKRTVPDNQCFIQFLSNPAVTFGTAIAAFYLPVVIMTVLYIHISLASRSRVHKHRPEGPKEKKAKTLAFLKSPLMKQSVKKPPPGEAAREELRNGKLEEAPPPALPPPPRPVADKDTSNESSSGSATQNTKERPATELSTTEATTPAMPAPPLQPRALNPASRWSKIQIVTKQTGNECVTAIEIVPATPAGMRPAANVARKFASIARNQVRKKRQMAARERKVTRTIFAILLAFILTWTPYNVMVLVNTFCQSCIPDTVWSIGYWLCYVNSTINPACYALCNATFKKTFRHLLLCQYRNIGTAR
# [4] = biological target: T3, cloned human muscarinic receptor subtype M2 (Homo sapiens, UniProt P08172); test: Receptor binding, [3H]NMS, cloned human muscarinic receptor M2
# T3 sequence (P08172 1-466): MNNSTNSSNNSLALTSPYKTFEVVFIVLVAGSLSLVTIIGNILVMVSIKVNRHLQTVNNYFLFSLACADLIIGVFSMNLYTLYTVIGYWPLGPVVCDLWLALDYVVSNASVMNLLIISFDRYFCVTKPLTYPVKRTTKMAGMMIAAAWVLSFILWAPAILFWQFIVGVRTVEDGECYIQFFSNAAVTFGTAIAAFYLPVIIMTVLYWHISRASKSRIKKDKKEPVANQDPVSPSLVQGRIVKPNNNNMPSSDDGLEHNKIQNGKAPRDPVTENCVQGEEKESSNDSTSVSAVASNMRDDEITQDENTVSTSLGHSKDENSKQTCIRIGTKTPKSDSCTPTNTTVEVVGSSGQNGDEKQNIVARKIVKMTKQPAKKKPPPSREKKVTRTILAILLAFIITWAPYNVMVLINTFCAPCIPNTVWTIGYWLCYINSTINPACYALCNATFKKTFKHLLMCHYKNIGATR
# [5] = biological target: T4, cloned human muscarinic receptor subtype M1 (Homo sapiens, UniProt P11229); test: Receptor binding, [3H]NMS, cloned human muscarinic receptor M1
# T4 sequence (P11229 1-460): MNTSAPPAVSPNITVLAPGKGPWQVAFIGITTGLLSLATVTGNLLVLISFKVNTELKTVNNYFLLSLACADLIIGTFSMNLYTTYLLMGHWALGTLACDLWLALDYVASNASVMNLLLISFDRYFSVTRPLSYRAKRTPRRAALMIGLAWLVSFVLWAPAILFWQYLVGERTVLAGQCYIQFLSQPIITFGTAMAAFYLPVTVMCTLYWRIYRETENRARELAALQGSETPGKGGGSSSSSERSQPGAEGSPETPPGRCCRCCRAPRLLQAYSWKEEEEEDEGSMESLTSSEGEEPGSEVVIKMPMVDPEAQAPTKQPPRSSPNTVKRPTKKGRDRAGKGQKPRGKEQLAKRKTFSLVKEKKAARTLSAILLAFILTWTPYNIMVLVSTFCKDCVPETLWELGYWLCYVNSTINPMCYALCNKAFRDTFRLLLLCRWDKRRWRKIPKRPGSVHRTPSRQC
# [6] = tested on: guinea pig ileum longitudinal muscle strips; test: Guinea pig ileum longitudinal muscle assay, pA2 against acetylcholine (Schild plot)
# [7] = tested on: guinea pig ileum (M3 muscarinic receptors)
# [8] = tested on: acetylcholine-induced bronchoconstriction; details: guinea pig, in vivo
# [9] = tested on: guinea pig tracheal rings; test: Guinea pig trachea assay, pA2 against carbachol (Schild plot)
# Method: Changes in isometric tension were measured by a force displacement transducer (Experimetria, Budapest, Hungary) coupled to a Watanabe recorder. Cumulative concentration-effect curves were constructed to carbachol in the absence or presence of the antagonists. In each animal two preparations were used as time control (i.e., repeated carbachol curves in the absence of any antagonist) the remaining two preparations were used to test responses in the presence of two different concentrations of the antagonist.
# Antagonists were added to the organ bath 30 min prior to commencement of the agonist concentration versus effect curves. Schild plots were constructed for the antagonists against carbachol and pA2 values as well as slope estimates were obtained.
# Responses were measured as changes in isometric tension and calculated as a percentage of the maximum response attained in the initial concentration-response curve. Determination of antagonist potencies was done by constructing Schild double logarithmic plot of log (DR-1) versus −log M concentrations of the antagonist, and the slope of the plot was computed. […] Statistical significance was assessed by ANOVA followed by Dunnett test.
# [10] = tested on: electrically stimulated guinea pig tracheal strips; test: Time course of anticholinergic effect in electrically stimulated guinea pig trachea
# [11] = biological target: muscarinic receptors (mainly M1) of rat brain cortex membranes (Rattus norvegicus, UniProt P08482); format: binding
# [12] = time from washout to 20% recovery of cholinergic responses
smiles,measurement,setting,value
C[N+]1(CC(=O)OCC(Cl)(Cl)Cl)[C@@H]2C[C@@H](OC(=O)C(O)(c3cccs3)c3cccs3)C[C@H]1[C@@H]1O[C@@H]12 (some centres unmarked) (as salt: bromide),melting point,,105 °C
"CCOC(=O)C[N+]1(C)[C@@H]2C[C@@H](OC(=O)C(O)(c3cccs3)c3cccs3)C[C@H]1[C@@H]1O[C@@H]12 (stereo partly drawn) (as salt: bromide) [Compound (w), 6β,7β-epoxy-3,8-hydroxy-8-ethoxycarbonylmethyl-8-methyl-1αH,5αH-tropaniun bromide, di-2-thienylglycolate]",melting point,,115 °C
"C[N+]1(CC(=O)O)[C@@H]2C[C@@H](OC(=O)C(O)(c3cccs3)c3cccs3)C[C@H]1[C@@H]1O[C@@H]12 (stereo partly drawn) (as salt: salt) [Compound (aa), 6β,7β-epoxy-3β-hydroxy-8-carboxymethyl-8-methyl-1αH,5αH-tropanuim, di-2-thienylglycolate inner salt]",melting point,,158 to 165 °C (dec.)
"CCOC(=O)C[N+]1(C)CC[C@H](OC(=O)[C@](O)(c2ccccc2)C2CCCC2)C1 (mixture of isomers) [Compound (j), (2R,3′S) 3-(2-cyclopentyl-2-phenyl-2-hydroxyacetoxy)-1-(ethoxycarbonylmethyl)-1-methylpyrrolidinium bromide]","pKi, range over subtypes M1-M4",[1],8.2-8.7
same,Selectivity M3/M2 (affinity ratio),[1]; M3/M2 affinity ratio,2.8±0.8 times
same,Ki,"[2]; mean ± SD of 3 experiments, read-out: receptor binding affinity pKi, M3 (converted)",2.29 nM
same,"Hill slope, M3",[2]; numbers in parentheses,(1.33 ± 0.16)
same,Ki,"[3]; mean ± SD of 3 experiments, read-out: receptor binding affinity pKi, M4 (converted)",1.95 nM
same,"Hill slope, M4",[3]; numbers in parentheses,(1.15 ± 0.03)
same,Ki,"[4]; mean ± SD of 3 experiments, read-out: receptor binding affinity pKi, M2 (converted)",6.17 nM
same,"Hill slope, M2",[4]; numbers in parentheses,(1.27 ± 0.11)
same,Ki,"[5]; mean ± SD of 3 experiments, read-out: receptor binding affinity pKi, M1 (converted)",2.09 nM
same,"Hill slope, M1",[5]; numbers in parentheses,(1.21 ± 0.33)
"C[N+]1(C)CCC(OC(=O)C(O)(c2ccccc2)C2CCCC2)C1.[Br-] (mixture of isomers) [glycopyrrolate, 3-(2-cyclopentyl-2-phenyl-2-hydroxyacetoxy)-1,1-dimethylpyrrolidinium bromide, reference compound]","pA2, Ileum",[6],9.66
same,pA2,[7],8.57±0.12
same,effect on acetylcholine-induced bronchoconstriction,[8],protective effect
same,"Hill slope, M3",[2],(1.14 ± 0.25)
same,"pA2, Trachea",[9],9.43
same,"Hill slope, M4",[3],(1.02 ± 0.01)
same,"Hill slope, M2",[4],(0.99 ± 0.11)
same,"Hill slope, M1",[5],(1.37 ± 0.20)
"CN1[C@@H]2CC[C@H]1C[C@@H](OC(=O)C(CO)c1ccccc1)C2 (some centres unmarked) [Atropine, atropine]","pA2, Ileum",[6],8.52
same,t1/5 offset,[10],10 min
same,t1/5 onset,[10],2.5 min
"C[N+]1(CC(=O)O)[C@@H]2C[C@@H](OC(=O)C(O)(c3cccs3)c3cccs3)C[C@H]1[C@@H]1O[C@@H]12 (stereo partly drawn) [Compound (aa), 6β,7β-epoxy-3β-hydroxy-8-carboxymethyl-8-methyl-1αH,5αH-tropanuim, di-2-thienylglycolate inner salt]",t1/5 onset,[10]; onset of inhibition,0.9 min
same,t1/5 offset,[10]; [12],27 min
"CCOC(=O)C[N@+]1(C)CC[C@@H](OC(=O)[C@](O)(c2ccccc2)C2CCCC2)C1 [Compound (m), (2R,1′R,3′R) 3-(2-cyclopentyl-2-phenyl-2-hydroxyacetoxy)-1-(ethoxycarbonylmethyl)-1-methylpyrrolidinium bromide]","pA2, Ileum",[6]; tissue samples from four animals,8.48
same,effect on acetylcholine-induced bronchoconstriction,[8],protective effect
same,"pA2, Trachea","[9]; against carbachol, tissue from four animals",8.12
same,Hill slope,[11]; Table 8,−0.93 ± 0.08
"CCOC(=O)C[N@@+]1(C)CC[C@@H](OC(=O)[C@](O)(c2ccccc2)C2CCCC2)C1 [Compound (n), (2R,1′S,3′R) 3-(2-cyclopentyl-2-phenyl-2-hydroxyacetoxy)-1-(ethoxycarbonylmethyl)-1-methylpyrrolidinium bromide]",Hill slope,[11]; Table 8,−1.07 ± 0.02
"CCOC(=O)C[N+]1(C)[C@@H]2C[C@@H](OC(=O)C(O)(c3cccs3)c3cccs3)C[C@H]1[C@@H]1O[C@@H]12 (stereo partly drawn) [Compound (w), 6β,7β-epoxy-3,8-hydroxy-8-ethoxycarbonylmethyl-8-methyl-1αH,5αH-tropaniun bromide, di-2-thienylglycolate]",t1/5 onset,[10]; onset of inhibition,0.6 min
same,t1/5 offset,[10]; [12],60 min
same,"pA2, Trachea",[9],8.82
same,Hill slope,[11],−1.00 ± 0.04
same,Ki,[11],7.2 ± 0.5 nM
"CC(C)[N+]1(C)[C@@H]2CC[C@H]1CC(OC(=O)C(CO)c1ccccc1)C2.[Br-] (some centres unmarked) [Ipratropium Br, ipratropium bromide, reference compound]",t1/5 onset,[10],3.0 min
same,"pA2, Trachea",[9],9.18
"C[N+]1(C)[C@@H]2C[C@@H](OC(=O)C(O)(c3cccs3)c3cccs3)C[C@H]1[C@@H]1O[C@@H]12 [Tiotropium, tiotropium]",t1/5 offset,[10],>360 min
same,t1/5 onset,[10],8.0 min
"C[N+]1(C)[C@@H]2C[C@@H](OC(=O)[C@H](CO)c3ccccc3)C[C@H]1[C@@H]1O[C@@H]12 [scopolamine methyl bromide, scopolamine methylbromide, reference compound]","Hill slope, M2",[4],(1.02 ± 0.02)
